The values below are quoted from earlier work in EP0156318A2, “C-terminal amide cyclic renin inhibitors containing peptide isosteres” (Merck & Co., Inc., priority 1984, dated 1985).

Square brackets hold non-standard residues; d marks the D form. Peptide text beside a SMILES is read from it. * marks the point of attachment. Sta = CC(C)C[C@H](N)[C@@H](O)CC(=O)O; Isovaleryl = CC(C)CC(=O)*

The subject of the series is hog renin. The conditions noted are these: after the injection of hog renin into nephrectomized rats.

On to `CC(C)CC(=O)N[C@H](C(=O)N[C@H](C(=O)N[C@@H](CC(C)C)[C@@H](O)CC(=O)N[C@@H](C)C(=O)N[C@@H](CC(C)C)[C@@H](O)CC(=O)O)C(C)C)C(C)C` [pepstatin] (Isovaleryl-VV[Sta]A[Sta]-OH), for which the “blood pressure in vivo” value is “reduce blood pressure”.
